Experimental data as given in ChEMBL document CHEMBL3272026, “On the structure of medicinal chemistry” (J Med Chem, 1976).

Tests used:
Escherichia coli = assay: Antimicrobial activity against Escherichia coli; format: functional
[1] = Lipophilicity, log P of the compound; format: physicochemical; settings: octanol/water
Mollusca = assay: Increase in mollusk membrane potential assessed as concentration required to raise 20 mV; format: functional, cell membranes
[2] = target: Alcohol dehydrogenase (Homo sapiens) (UniProt P07327+P08319+P00325+P00326+P40394+P11766+P28332); assay: Binding affinity to alcohol dehydrogenase (unknown origin); format: protein assay

Row | SMILES | log(1/C) (Escherichia coli) | log(1/C) (Mollusca) | log(1/K) [2] | other results
1 | Nc1ccc(S(=O)(=O)Nc2ccc(Cl)cc2)cc1 | 4.8 | – | – | –
2 | Cc1cccc(Nc2ccccc2C(=O)O)c1C [MEFENAMIC ACID] | – | 3.48 | – | logP ([1]; read-out: logP): 0.28
3 | O=C(O)c1cc(Cl)cc(Cl)c1O | – | 3.48 | – | logP [1]: 0.23
4 | NC(=O)c1ccc([N+](=O)[O-])cc1 | – | – | -2.6 | –
5 | NC(=O)c1ccc(F)cc1 | – | – | -2.6 | –
6 | CCOc1cccc(NS(=O)(=O)c2ccc(N)cc2)c1 | 4.88 | – | – | –
